# Results reported in US10821115B2, “Compounds that inhibit Mcl-1 protein” (priority 2017, dated 2020).
# Like-named read-outs stand apart in the source and are kept apart here.
# Assays:
# [1] = test system: human multiple myeloma cell line, OPM-2; assay: Cell viability assay (OPM-2 10 FBS), CellTiter-Glo; format: cell-based
# How it was run: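 Steps: plate cells at 3000/well in 10% FBS growth medium, add serially diluted compound, incubate 16 h at 37 °C with 5% CO2, add detection reagent and read luminescence after 25 min. A 4-parameter logistic model gives IC50.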
# [2] = molecular target: recombinant human Mcl-1 (residues 171-327) / Bim interaction (Homo sapiens (Human), UniProt Q07820); assay: biochemical; format: binding; settings: TR-FRET, Mcl-1(171-327) / biotin-Bim (51-76); read-out: Mcl-1 HTRF IC50
# Sequence of recombinant human Mcl-1 (residues 171-327) / Bim interaction (Q07820 171-327): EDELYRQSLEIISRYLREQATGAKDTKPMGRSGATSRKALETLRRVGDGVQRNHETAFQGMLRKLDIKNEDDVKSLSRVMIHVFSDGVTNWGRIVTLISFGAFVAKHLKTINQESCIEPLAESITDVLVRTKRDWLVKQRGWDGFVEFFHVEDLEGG
# [3] = read-out: OPM-2 10% FBS IC50 IP, OPM-2 cells, 10% FBS, 16 h, CellTiter-Glo
# [4] = Homo sapiens, OPM-2, 16 h, read-out: OPM-2 10% FBS IC50 IP, OPM-2 cells, 10% FBS, 16 h, CellTiter-Glo
SMILES,"IC50 [1, 3] [nM]",IC50 [2] [nM],"IC50 [1, 4] [nM]"
"C[C@@H]1[C@@H](C)C/C=C/[C@@](O)(C#CCO)[C@@H]2CC[C@H]2CN2C[C@@]3(CCCc4cc(Cl)ccc43)COc3ccc(cc32)C(=O)NS1(=O)=O [Example 100394, (1S,3′R,6′R,7′S,8′E,11′S,12′R)-6-chloro-7′-hydroxy-7′-(3-hydroxy-1-propyn-1-yl)-11′,12′-dimethyl-3,4-dihydro-2H,15′H-spiro[naphthalene-1,22′-[20]oxa[13]thia[1,14]diazatetracyclo [14.7.2.0~3,6~.0~19,24~]pentacosa[8,16,18,24]tetraen]-15′-one 13′,13′-dioxide]",622,0.242,–
"C[C@@H]1[C@@H](C)C/C=C/[C@@](O)(C#CCO)[C@@H]2CC[C@H]2CN2C[C@@]3(CCCc4cc(Cl)ccc43)COc3ccc(cc32)C(=O)NS1(=O)=O [Example 100395, (1S,3′R,6′R,7′S,8′E,11′S,12′R)-6-chloro-7′-hydroxy-7′-(3-hydroxy-1-propyn-1-yl)-11′,12′-dimethyl-3,4-dihydro-2H,15′H-spiro[naphthalene-1,22′-[20]oxa[13]thia[1,14]diazatetracyclo [14.7.2.0~3,6~.0~19,24~]pentacosa[8,16,18,24]tetraen]-15′-one 13′,13′-dioxide]",40,0.056,–
"COCC1(N(C)C(=O)C[C@]2(OC)/C=C/C[C@H](C)[C@@H](C)S(=O)(=O)NC(=O)c3ccc4c(c3)N(C[C@@H]3CC[C@H]32)C[C@@]2(CCCc3cc(Cl)ccc32)CO4)CC1 [Example 100396, 2-((1S,3′R,6′R,7′S,8′E,11′S,12′R)-6-chloro-7′-methoxy-11′,12′-dimethyl-13′,13′-dioxido-15′-oxo-3,4-dihydro-2H-spiro[naphthalene-1,22′-[20]oxa[13]thia[1,14]diazatetracyclo [14.7.2.0~3,6~.0~19,24~]pentacosa[8,16,18,24]tetraen]-7′-yl)-N-(1-(methoxymethyl)cyclopropyl)-N-methylacetamide]",–,0.272,1470
"C=CC[C@]1(OC)/C=C/C[C@H](C)[C@@H](C)S(=O)(=O)NC(=O)c2ccc3c(c2)N(C[C@@H]2CC[C@H]21)C[C@@]1(CCCc2cc(Cl)ccc21)CO3 [Example 100397, (1S,3′R,6′R,7′S,8′E,11′S,12′R)-6-chloro-7′-methoxy-11′,12′-dimethyl-7′-(2-propen-1-yl)-3,4-dihydro-2H,15′H-spiro[naphthalene-1,22′-[20]oxa[13]thia[1,14]diazatetracyclo [14.7.2.0~3,6~.0~19,24~]pentacosa[8,16,18,24]tetraen]-15′-one 13′,13′-dioxide]",–,0.198,404
"COC[C@]1(OC)/C=C/C[C@H](C)[C@@H](C)S(=O)(=O)NC(=O)c2ccc3c(c2)N(C[C@@H]2CC[C@H]21)C[C@@]1(CCCc2cc(Cl)ccc21)CO3 [Example 100401, (1S,3′R,6′R,7′S,8′E,11′S,12′R)-6-chloro-7′-methoxy-7′-(methoxymethyl)-11′,12′-dimethyl-3,4-dihydro-2H,15′H-spiro[naphthalene-1,22′-[20]oxa[13]thia[1,14]diazatetracyclo [14.7.2.0~3,6~.0~19,24~]pentacosa[8,16,18,24]tetraen]-15′-one 13′,13′-dioxide]",–,1.8,8390
"C[C@@H]1[C@@H](C)C/C=C/[C@](O)(c2ccc(F)cn2)[C@@H]2CC[C@H]2CN2C[C@@]3(CCCc4cc(Cl)ccc43)COc3ccc(cc32)C(=O)NS1(=O)=O [Example 100403, (1S,3′R,6′R,7′R,8′E,11′S,12′R)-6-chloro-7′-(5-fluoro-2-pyridinyl)-7′-hydroxy-11′,12′-dimethyl-3,4-dihydro-2H,15′H-spiro[naphthalene-1,22′-[20]oxa[13]thia[1,14]diazatetracyclo [14.7.2.0~3,6~.0~19,24~]pentacosa[8,16,18,24]tetraen]-15′-one 13′,13′-dioxide]",–,0.226,390
"CO[C@@]1(C(C)(C)O)/C=C/C[C@H](C)[C@@H](C)S(=O)(=O)NC(=O)c2ccc3c(c2)N(C[C@@H]2CC[C@H]21)C[C@@]1(CCCc2cc(Cl)ccc21)CO3 [Example 100404, (1S,3′R,6′R,7′S,8′E,11′S,12′R)-6-chloro-7′-(2-hydroxy-2-propanyl)-7′-methoxy-11′,12′-dimethyl-3,4-dihydro-2H,15′H-spiro[naphthalene-1,22′-[20]oxa[13]thia[1,14]diazatetracyclo [14.7.2.0~3,6~.0~19,24~]pentacosa[8,16,18,24]tetraen]-15′-one 13′,13′-dioxide]",–,2.55,8150
"CO[C@@]1(CC(=O)N(C)C2CCCC2)/C=C/C[C@H](C)[C@@H](C)S(=O)(=O)NC(=O)c2ccc3c(c2)N(C[C@@H]2CC[C@H]21)C[C@@]1(CCCc2cc(Cl)ccc21)CO3 [Example 100405, 2-((1S,3′R,6′R,7′S,8′E,11′S,12′R)-6-chloro-7′-methoxy-11′,12′-dimethyl-13′,13′-dioxido-15′-oxo-3,4-dihydro-2H-spiro[naphthalene-1,22′-[20]oxa[13]thia[1,14]diazatetracyclo [14.7.2.0~3,6~.0~19,24~]pentacosa[8,16,18,24]tetraen]-7′-yl)-N-cyclopentyl-N-methylacetamide]",–,0.545,1120
"Cc1ccc([C@@]2(O)/C=C/C[C@H](C)[C@@H](C)S(=O)(=O)NC(=O)c3ccc4c(c3)N(C[C@@H]3CC[C@H]32)C[C@@]2(CCCc3cc(Cl)ccc32)CO4)cn1 [Example 100407, (1S,3′R,6′R,7′R,8′E,11′S,12′R)-6-chloro-7′-hydroxy-11′,12′-dimethyl-7′-(6-methyl-3-pyridinyl)-3,4-dihydro-2H,15′H-spiro[naphthalene-1,22′-[20]oxa[13]thia[1,14]diazatetracyclo [14.7.2.0~3,6~.0~19,24~]pentacosa[8,16,18,24]tetraen]-15′-one 13′,13′-dioxide]",–,0.278,516
"CO[C@]1(C#CCN2CCOCC2)/C=C/C[C@H](C)[C@@H](C)S(=O)(=O)NC(=O)c2ccc3c(c2)N(C[C@@H]2CC[C@H]21)C[C@@]1(CCCc2cc(Cl)ccc21)CO3 [Example 100409, (1S,3′R,6′R,7′R,8′E,11′S,12′R)-6-chloro-7′-methoxy-11′,12′-dimethyl-7′-(3-(4-morpholinyl)-1-propyn-1-yl)-3,4-dihydro-2H,15′H-spiro[naphthalene-1,22′-[20]oxa[13]thia[1,14]diazatetracyclo [14.7.2.0~3,6~.0~19,24~]pentacosa[8,16,18,24]tetraen]-15′-one 13′,13′-dioxide]",206,0.124,–
"C[C@@H]1[C@@H](C)C/C=C/[C@](O)(c2cncnc2)[C@@H]2CC[C@H]2CN2C[C@@]3(CCCc4cc(Cl)ccc43)COc3ccc(cc32)C(=O)NS1(=O)=O [Example 100410, (1S,3′R,6′R,7′R,8′E,11′S,12′R)-6-chloro-7′-hydroxy-11′,12′-dimethyl-7′-(5-pyrimidinyl)-3,4-dihydro-2H,15′H-spiro[naphthalene-1,22′-[20]oxa[13]thia[1,14]diazatetracyclo [14.7.2.0~3,6~.0~19,24~]pentacosa[8,16,18,24]tetraen]-15′-one 13′,13′-dioxide]",–,0.127,297
"CO[C@@]1(CC(=O)N2CCN3CCOC[C@H]3C2)/C=C/C[C@H](C)[C@@H](C)S(=O)(=O)NC(=O)c2ccc3c(c2)N(C[C@@H]2CC[C@H]21)C[C@@]1(CCCc2cc(Cl)ccc21)CO3 [Example 100411, (1S,3′R,6′R,7′S,8′E,11′S,12′R)-6-chloro-7′-(2-((9aR)-hexahydropyrazino[2,1-c][1,4]oxazin-8(1H)-yl)-2-oxoethyl)-7′-methoxy-11′,12′-dimethyl-3,4-dihydro-2H,15′H-spiro[naphthalene-1,22′-[20]oxa[13]thia[1,14]diazatetracyclo [14.7.2.0~3,6~.0~19,24~]pentacosa[8,16,18,24]tetraen]-15′-one 13′,13′-dioxide]",–,0.584,2100
"CO[C@@]1(CCN2CCCC2)/C=C/C[C@H](C)[C@@H](C)S(=O)(=O)NC(=O)c2ccc3c(c2)N(C[C@@H]2CC[C@H]21)C[C@@]1(CCCc2cc(Cl)ccc21)CO3 [Example 100412, (1S,3′R,6′R,7′S,8′E,11′S,12′R)-6-chloro-7′-methoxy-11′,12′-dimethyl-7′-(2-(1-pyrrolidinyl)ethyl)-3,4-dihydro-2H,15′H-spiro[naphthalene-1,22′-[20]oxa[13]thia[1,14]diazatetracyclo [14.7.2.0~3,6~.0~19,24~]pentacosa[8,16,18,24]tetraen]-15′-one 13′,13′-dioxide]",–,0.097,249
"C[C@@H]1[C@@H](C)C/C=C/[C@](O)(C(F)(F)C(=O)N(C)C)[C@@H]2CC[C@H]2CN2C[C@@]3(CCCc4cc(Cl)ccc43)COc3ccc(cc32)C(=O)NS1(=O)=O [Example 100413, 2-((1S,3′R,6′R,7′R,8′E,11′S,12′R)-6-chloro-7′-hydroxy-11′,12′-dimethyl-13′,13′-dioxido-15′-oxo-3,4-dihydro-2H-spiro[naphthalene-1,22′-[20]oxa[13]thia[1,14]diazatetracyclo [14.7.2.0~3,6~.0~19,24~]pentacosa[8,16,18,24]tetraen]-7′-yl)-2,2-difluoro-N,N-dimethylacetamide]",–,0.228,556
"CCOC(=O)C(F)(F)[C@@]1(O)/C=C/C[C@H](C)[C@@H](C)S(=O)(=O)NC(=O)c2ccc3c(c2)N(C[C@@H]2CC[C@H]21)C[C@@]1(CCCc2cc(Cl)ccc21)CO3 [Example 100414, ethyl ((1S,3′R,6′R,7′R,8′E,11′S,12′R)-6-chloro-7′-hydroxy-11′,12′-dimethyl-13′,13′-dioxido-15′-oxo-3,4-dihydro-2H-spiro[naphthalene-1,22′-[20]oxa[13]thia[1,14]diazatetracyclo [14.7.2.0~3,6~.0~19,24~]pentacosa[8,16,18,24]tetraen]-7′-yl)(difluoro)acetate]",–,0.626,1270
